Experimental data published in paper PMC5778071, “Development of matrix metalloproteinase-targeted probes for lung inflammation detection with positron emission tomography” (Scientific Reports, 2018).
Where “and” joins values, the source holds several entries; their conditions need not be identical. Equal entries are not always repeated. Blank lines part the entries; values can stand above or below the molecule they belong to.

Legend:
[1] = system: MMP-12; design: method as in PMID 25438884; conditions: fluorogenic inhibition assay; cited from earlier work
[2] = system: MMP-9; design: method as in PMID 25438884; conditions: fluorogenic inhibition assay; cited from earlier work
[3] = In vivo biodistribution study in Air and CS (COPD model) mice; design: species or system BALB/c mice; conditions: for Tissue radioactivity, Blood / Tissue radioactivity, Bone / Tissue radioactivity, Heart / Tissue radioactivity, Intestine / Tissue radioactivity, Kidney / Tissue radioactivity, Liver / Tissue radioactivity, Lung / Tissue radioactivity, Muscle / Tissue radioactivity, Pancreas / Tissue radioactivity, Spleen / Tissue radioactivity, Stomach: i.v.
Method: The animals were randomly divided into two groups, control air-exposed (Air, n = 18) and cigarette smoke exposed (CS, n = 18) groups. The mice in the CS group were exposed to cigarette smoke for 10 min inside an acrylic box twice a day, 4–5 times a week, for 4 months using 1 cigarette (Peace, Japan Tobacco Inc., Tokyo, Japan) for every exposure following a previous report with slight modifications. The mice in the Air group were identically exposed to air without CS in a similar box. After the CS treatment, the animals were kept under normal warm and clean environmental conditions to allow for recovery and then housed as described above.
Animals from each study group were randomly divided into 3 groups (n = 3 each) for each time point studied. Mice that were intravenously administered ^18F-IPFP (185 kBq/100 μl saline containing 0.1% tween 80) were sacrificed by cervical dislocation at 20, 45, and 90 min, and 5, 45, and 90 min after administration for the Air and CS groups, respectively. Blood was immediately collected from the heart cavity. Tissues were excised, weighed, and counted for radioactivity with an NaI well-type scintillation counter (1470 Wizard; PerkinElmer, Kanagawa, Japan).

[4] = Ex vivo autoradiography of lung sections; assay type: in vivo, BALB/c mice; conditions: after PET scan; for Radioactivity accumulation in lung sections (autoradiography): 20 μm sections
Method: Following the PET experiments, the frozen lungs were cut into 20 μm thick sections with a cryomicrotome (Cryotome FSE; ThermoFisher Scientific, Tokyo, Japan). Lung sections at intervals of 100 μm (n = 2 each, 9 positions) were exposed to imaging plates (BAS-SR; GE Healthcare Japan, Tokyo, Japan) for 3 h. To quantify the signals, various concentrations of the administrated ^18F-IPFP dilutions were also plotted and exposed to imaging plates. Autoradiograms were obtained with a Typhoon FLA 7000 scanner, (GE Healthcare Japan), and the resulting images were analyzed by ImageQuant TL (GE Healthcare Japan). Radioactivities per area were determined by image analysis of the resulting autoradiograms and expressed as percent injected dose (%ID) per section calculated using the quantitation curve obtained by the ^18F-IPFP dilutions.

[5] = In vivo PET imaging of lung region; design: species or system BALB/c mice; conditions: 50–60 min after injection
Method: PET data were acquired in list mode using a microPET Focus120 apparatus (Siemens), with a spatial resolution of 1.2 mm at the center of the field of view[24]. Animals (n = 2 per group) were placed in a prone position under 1–2% isoflurane anesthesia on a heating pad to maintain body temperature at 36–37 °C during the PET experiments. A transmission […] scan using an external ^68Ge source was acquired before the PET scan for attenuation correction. At the start of the PET scan, intravenous administration of ^18F-IPFP (4.7–8.1 MBq/100 μl saline containing 0.1% tween 80) was initiated for 15 sec followed by a 50–100 μl saline flush for 15 sec. The scan duration was 60 min. Following the PET scan, mice were immediately euthanized with an anesthesia overdose, followed by extraction of the lungs and heart. Extracted organs were placed on the PET bed and scanned for another 10 min. Thereafter, the lungs were frozen for ex vivo autoradiography analysis. Emission images were reconstructed using Fourier rebinning[25] and a maximum likelihood expectation maximization algorithm with a 128 × 128 × 95 matrix size, and a 0.43 × 0.43 × 0.80 mm^3 voxel size. The uptake of the tracer in the regions of interest was converted to the standardized uptake values (SUVs).

[6] = Air group, 20 min after injection
[7] = Air group, 45 min after injection
[8] = Air group, 90 min after injection
[9] = CS group, 5 min after injection
[10] = CS group, 45 min after injection
[11] = CS group, 90 min after injection

SMILES: CC(C)C[C@H](CC(=O)NO)C(=O)N[C@@H](Cc1ccccc1)C(=O)N[C@@H](CCCCNC(=O)c1ccc(F)cc1)C(N)=O [^18F-FB-ML5]
- IC50 [1]: 138 nM
- IC50 [2]: 31.5 nM

- Radioactivity accumulation in the lungs, CS group compared with Air group ([3]; 90 min after administration): > 4 fold and 4 fold
- Tissue radioactivity, Blood [3, 6]: 0.5 ± 0.1 %ID/g
- Tissue radioactivity, Bone [3, 6]: 0.4 ± 0.0 %ID/g
- Tissue radioactivity, Heart [3, 6]: 0.5 ± 0.1 %ID/g
- Tissue radioactivity, Intestine [3, 6]: 10.7 ± 2.2 %ID/g
- Tissue radioactivity, Kidney [3, 6]: 37.6 ± 6.4 %ID/g
- Tissue radioactivity, Liver [3, 6]: 22.6 ± 0.7 %ID/g
- Tissue radioactivity, Lung [3, 6]: 5.3 ± 0.6 %ID/g
- Tissue radioactivity, Muscle [3, 6]: 0.3 ± 0.1 %ID/g
- Tissue radioactivity, Pancreas [3, 6]: 5.4 ± 0.7 %ID/g
- Tissue radioactivity, Spleen [3, 6]: 0.9 ± 0.1 %ID/g
- Tissue radioactivity, Stomach [3, 6]: 2.8 ± 2.1 % injected dose
- Tissue radioactivity, Blood [3, 7]: 0.6 ± 0.0 %ID/g
- Tissue radioactivity, Bone [3, 7]: 0.5 ± 0.1 %ID/g
- Tissue radioactivity, Heart [3, 7]: 0.5 ± 0.0 %ID/g
- Tissue radioactivity, Intestine [3, 7]: 16.9 ± 3.0 %ID/g
- Tissue radioactivity, Kidney [3, 7]: 38.8 ± 4.2 %ID/g
- Tissue radioactivity, Liver [3, 7]: 15.2 ± 1.6 %ID/g
- Tissue radioactivity, Lung [3, 7]: 2.4 ± 0.4 %ID/g
- Tissue radioactivity, Muscle [3, 7]: 0.3 ± 0.2 %ID/g
- Tissue radioactivity, Pancreas [3, 7]: 4.5 ± 0.8 %ID/g
- Tissue radioactivity, Spleen [3, 7]: 0.8 ± 0.1 %ID/g
- Tissue radioactivity, Stomach [3, 7]: 1.5 ± 1.0 % injected dose
- Tissue radioactivity, Blood [3, 8]: 0.7 ± 0.1 %ID/g
- Tissue radioactivity, Bone [3, 8]: 0.7 ± 0.2 %ID/g
- Tissue radioactivity, Heart [3, 8]: 0.5 ± 0.1 %ID/g
- Tissue radioactivity, Intestine [3, 8]: 18.4 ± 2.1 %ID/g
- Tissue radioactivity, Kidney [3, 8]: 34.6 ± 3.3 %ID/g
- Tissue radioactivity, Liver [3, 8]: 11.2 ± 1.1 %ID/g
- Tissue radioactivity, Lung [3, 8]: 1.3 ± 0.1 %ID/g
- Tissue radioactivity, Muscle [3, 8]: 0.4 ± 0.1 %ID/g
- Tissue radioactivity, Pancreas [3, 8]: 3.9 ± 0.6 %ID/g
- Tissue radioactivity, Spleen [3, 8]: 0.8 ± 0.2 %ID/g
- Tissue radioactivity, Stomach [3, 8]: 0.5 ± 0.2 % injected dose
- Radioactivity accumulation in the lungs relative to heart, muscle and blood ([3]; COPD mice, 90 min after administration): 10 fold
- Tissue radioactivity, Blood [3, 9]: 0.8 ± 0.1 %ID/g
- Tissue radioactivity, Bone [3, 9]: 1.0 ± 0.3 %ID/g
- Tissue radioactivity, Heart [3, 9]: 0.9 ± 0.3 %ID/g
- Tissue radioactivity, Intestine [3, 9]: 6.0 ± 0.6 %ID/g
- Tissue radioactivity, Kidney [3, 9]: 34.1 ± 3.6 %ID/g
- Tissue radioactivity, Liver [3, 9]: 30.8 ± 4.6 %ID/g
- Tissue radioactivity, Lung [3, 9]: 9.4 ± 1.9 %ID/g
- Tissue radioactivity, Muscle [3, 9]: 0.6 ± 0.1 %ID/g
- Tissue radioactivity, Pancreas [3, 9]: 6.2 ± 0.3 %ID/g
- Tissue radioactivity, Spleen [3, 9]: 2.5 ± 0.4 %ID/g
- Tissue radioactivity, Stomach [3, 9]: 1.0 ± 0.4 % injected dose
- Radioactivity accumulation in the lungs relative to surrounding tissues (heart, blood, muscle) [3, 10]: > 10 fold
- Tissue radioactivity, Blood [3, 10]: 0.5 ± 0.1 %ID/g
- Tissue radioactivity, Bone [3, 10]: 0.6 ± 0.1 %ID/g
- Tissue radioactivity, Heart [3, 10]: 0.5 ± 0.1 %ID/g
- Tissue radioactivity, Intestine [3, 10]: 13.1 ± 0.3 %ID/g
- Tissue radioactivity, Kidney [3, 10]: 31.7 ± 2.2 %ID/g
- Tissue radioactivity, Liver [3, 10]: 17.4 ± 4.1 %ID/g
- Tissue radioactivity, Lung [3, 10]: 5.6 ± 0.5 %ID/g
- Tissue radioactivity, Muscle [3, 10]: 0.3 ± 0.1 %ID/g
- Tissue radioactivity, Pancreas [3, 10]: 4.8 ± 0.6 %ID/g
- Tissue radioactivity, Spleen [3, 10]: 1.2 ± 0.2 %ID/g
- Tissue radioactivity, Stomach [3, 10]: 2.2 ± 0.2 % injected dose
- Tissue radioactivity, Blood [3, 11]: 0.6 ± 0.1 %ID/g
- Tissue radioactivity, Bone [3, 11]: 0.8 ± 0.2 %ID/g
- Tissue radioactivity, Heart [3, 11]: 0.6 ± 0.1 %ID/g
- Tissue radioactivity, Intestine [3, 11]: 15.7 ± 0.9 %ID/g
- Tissue radioactivity, Kidney [3, 11]: 25.4 ± 5.2 %ID/g
- Tissue radioactivity, Liver [3, 11]: 12.0 ± 1.0 %ID/g
- Tissue radioactivity, Lung [3, 11]: 6.3 ± 0.3 %ID/g
- Tissue radioactivity, Muscle [3, 11]: 0.3 ± 0.1 %ID/g
- Tissue radioactivity, Pancreas [3, 11]: 3.9 ± 0.4 %ID/g
- Tissue radioactivity, Spleen [3, 11]: 1.3 ± 0.2 %ID/g
- Tissue radioactivity, Stomach [3, 11]: 1.4 ± 0.5 % injected dose
- accumulation ratio of lung to liver ([3]; mouse, in vivo): > 0.5
- Radioactivity uptake in the bone ([3]; over the time window, suggests absence of defluorination): low
- Radioactivity accumulation in lung sections (autoradiography) ([4]; Air group): 16.2 ± 2.0 × 10^−4 %ID/section
- Radioactivity accumulation in lung sections (autoradiography) ([4]; CS group): 30.0 ± 3.0 × 10^−4 %ID/section
- Radioactivity accumulation in lung sections, CS group vs Air group (autoradiography) [4]: 2 fold
- SUV in the lung regions (PET) ([5]; Air group): 0.17
- SUV in the lung regions (PET) ([5]; CS group): 0.22
SMILES: CC(C)C[C@H](CC(=O)NO)C(=O)N[C@@H](Cc1ccc(I)cc1)C(=O)N[C@@H](CCCCNC(=O)C(C)[18F])C(N)=O (stereo partly drawn) [^18F-IPFP]
